Values of other authors in article PMC8339258 (Frontiers in Pharmacology, 2021).

In the case of `CC#CCn1c(N2CCC[C@@H](N)C2)nc2c1c(=O)n(Cc1nc(C)c3ccccc3n1)c(=O)n2C` [linagliptin, (R)-8-(3-Amino-piperidin-1-yl)-7-but-2-ynyl-3-methyl-1-(4-methyl-quinazolin-2-ylmethyl)-3,7-dihydro-purine-2,6-dione], the t1/2 (comparison in discussion, ref not given) is given as over 100 h and the terminal half-life (ref Hüttner et al., 2008, Heise et al., 2009, Blech al., 2010, Sarashina et al.) is given as 142 h.
